Results reported in patent US20260262643A1, “HERBICIDAL BENZOXAZINES” (FMC CORPORATION, priority 2022, published 2026).

What was measured:
ragweed [1] = assay: Test C preemergence; type: in vivo, Ambrosia artemisiifolia; details: Preemergence, 1000 g ai/ha; visual rating after 10 days, 0 to 100 scale (0 no effect, 100 complete control)
Outline: (§1)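 Visual injury ratings on a 0–100 scale (100 = complete control) were made against untreated controls 10 days after treatment in the greenhouse. Compounds, formulated with surfactant in non-phytotoxic solvent, were sprayed on soil preemergence or onto one- to two-leaf plants 2–10 cm tall postemergence.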

kochia [2] = assay: Test C preemergence; type: in vivo, Bassia scoparia; details: Preemergence, 1000 g ai/ha; visual rating after 10 days, 0 to 100 scale (0 no effect, 100 complete control)
Outline: as §1

ryegrass, Italian [3] = assay: Test C preemergence; type: in vivo, Lolium multiflorum; details: Preemergence, 1000 g ai/ha; visual rating after 10 days, 0 to 100 scale (0 no effect, 100 complete control)
Outline: as §1

blackgrass = assay: Test C postemergence; type: in vivo, Alopecurus myosuroides; details: Postemergence, 1000 g ai/ha; for pest or weed control at 1000 g/ha: Alopecurus myosuroides, post-emergence, 240 h, read-out: Plant response rating, Blackgrass
Outline: as §1

wheat = assay: Test C postemergence; type: in vivo, Triticum aestivum; details: Postemergence, 1000 g ai/ha
Outline: as §1

galium = assay: Test C postemergence; type: in vivo, Galium aparine; details: Postemergence, 1000 g ai/ha
Outline: as §1

Pigweed, Redroot [4] = assay: Test C postemergence; type: in vivo, Amaranthus retroflexus; details: 1000 g ai/ha
Text: (§2) Seeds of plant species selected from barnyardgrass (Echinochloa crusgalli), blackgrass (Alopecurus myosuroides), corn (Zea mays), foxtail, giant (giant foxtail, Setaria faberi), green foxtail (Setaria viridis), goosegrass (Eleusine indica), kochia (Bassia scoparia), oat, wild (wild oat, Avena fatua), pigweed, palmer (palmer amaranth, palmer pigweed, Amaranthus palmeri), Pigweed, Redroot (redroot pigweed, Amaranthus retroflexus), ragweed (common ragweed, Ambrosia artemisiifolia), ryegrass, Italian ([…] ryegrass, Lolium multiflorum), soybean (Glycine max), and wheat (Triticum aestivum) were planted into a blend of loam soil and sand and treated preemergence with a directed soil spray using test chemicals formulated in a non-phytotoxic solvent mixture which included a surfactant. At the same time, plants selected from these crops and weed species and also galium (catchweed bedstraw, Galium aparine) and horseweed (Erigeron canadensis) were planted in pots containing the same blend of loam soil and sand and treated with postemergence applications of test chemicals formulated in the same manner. Plants ranged in height from 2 to 10 cm and were in the one- to two-leaf stage for the postemergence treatment. Treated plants and untreated controls were maintained in a greenhouse for 10 days, after which time all treated plants were compared to untreated controls and visually evaluated for injury. Plant response ratings, summarized in Table C, are based on a 0 to 100 scale where 0 is no effect and 100 is complete control. A dash (-) response means no test result.

ryegrass, Italian [5] = assay: Test C postemergence; type: in vivo, Lolium multiflorum; details: Postemergence, 1000 g ai/ha
Outline: as §1

kochia [6] = assay: Test C postemergence; type: in vivo, Bassia scoparia; details: Postemergence, 1000 g ai/ha
Outline: as §1

ragweed [7] = assay: Test C postemergence; type: in vivo, Ambrosia artemisiifolia; details: Postemergence, 1000 g ai/ha
Outline: as §1

barnyardgrass [8] = assay: Test C preemergence; type: in vivo, Echinochloa crusgalli; details: Preemergence, 1000 g ai/ha; visual rating after 10 days, 0 to 100 scale (0 no effect, 100 complete control)
Outline: as §1

corn = assay: Test C postemergence; type: in vivo, Zea mays; details: Postemergence, 1000 g ai/ha; for Corn plant response rating (crop injury, 0 = no effect, 100 = complete kill) at 1000 g/ha: Zea mays, post-emergence, 240 h
Outline: as §1

foxtail, giant [9] = assay: Test C postemergence; type: in vivo, Setaria faberi; details: Postemergence, 1000 g ai/ha
Outline: as §1

foxtail, giant [10] = assay: Test C preemergence; type: in vivo, Setaria faberi; details: Preemergence, 1000 g ai/ha; visual rating after 10 days, 0 to 100 scale (0 no effect, 100 complete control)
Outline: as §1

barnyardgrass [11] = assay: Test C postemergence; type: in vivo, Echinochloa crusgalli; details: Postemergence, 1000 g ai/ha
Outline: as §1

Pigweed, Redroot [12] = assay: Test C preemergence; type: in vivo, Amaranthus retroflexus; details: 1000 g ai/ha, visual rating after 10 days, 0 to 100 scale (0 no effect, 100 complete control)
Text: as §2

[13] = 0 to 100 scale, 0 no effect, 100 complete control
[14] = 10 days, visual 0 to 100 scale (0 no effect, 100 complete control)

O=C(c1cccc(-n2cncn2)c1)N1CC2(CC2)Oc2ccccc21 [Compound 201]
40: Plant response rating, Galium (galium; [13])
0%: pest or weed control at 1000 g/ha (blackgrass; [13]) | Corn plant response rating (crop injury, 0 = no effect, 100 = complete kill) at 1000 g/ha (corn; [13])
10: Plant response rating, Kochia (kochia [6]; [13]) | Plant response rating, Foxtail, Giant (foxtail, giant [9]; [13]) | Plant response rating, Foxtail, Giant (foxtail, giant [10]) | Plant response rating, Barnyardgrass (barnyardgrass [11]; [13])
0: Plant response rating, Ragweed (ragweed [1]) | Plant response rating, Kochia (kochia [2]) | Plant response rating, Ryegrass, Italian (ryegrass, Italian [3]) | Plant response rating, Wheat (wheat; [13]) | Plant response rating, Pigweed, Redroot (Pigweed, Redroot [4]; [13]) | Plant response rating, Ryegrass, Italian (ryegrass, Italian [5]; [13]) | Plant response rating, Ragweed (ragweed [7]; [13]) | Plant response rating, Barnyardgrass (barnyardgrass [8])

C[C@H]1CN(C(=O)c2cccc(-n3ccnn3)c2)c2cccc(Cl)c2O1 [Compound 199]
20: Plant response rating, Blackgrass (blackgrass; [13]) | Plant response rating, Galium (galium; [13]) | Plant response rating, Pigweed, Redroot (Pigweed, Redroot [12]) | Plant response rating, Foxtail, Giant (foxtail, giant [9]; [13])
50: Plant response rating, Foxtail, Giant (foxtail, giant [10])
0: Plant response rating, Ragweed (ragweed [1]) | Plant response rating, Kochia (kochia [2]) | Plant response rating, Wheat (wheat; [13]) | Plant response rating, Ragweed (ragweed [7]; [13]) | Plant response rating, Barnyardgrass (barnyardgrass [8])
40: Plant response rating, Pigweed, Redroot (Pigweed, Redroot [4]; [13]) | Plant response rating, Ryegrass, Italian (ryegrass, Italian [5]; [13])
30: Plant response rating, Ryegrass, Italian (ryegrass, Italian [3]) | Plant response rating, Barnyardgrass (barnyardgrass [11]; [13])
10: Plant response rating, Kochia (kochia [6]; [13]) | Plant response rating, Corn (corn; [13])

CC1CN(C(=O)c2ccnc(-c3ccccn3)c2)c2cccc(Cl)c2O1 (stereo not shown) [Compound 198]
0: Plant response rating, Ragweed (ragweed [1]) | Plant response rating, Kochia (kochia [2]) | Plant response rating, Ryegrass, Italian (ryegrass, Italian [3]) | Plant response rating, Blackgrass (blackgrass; [13]) | Plant response rating, Galium (galium; [13]) | Plant response rating, Pigweed, Redroot (Pigweed, Redroot [4]; [13]) | Plant response rating, Ryegrass, Italian (ryegrass, Italian [5]; [13]) | Plant response rating, Kochia (kochia [6]; [13]) | Plant response rating, Ragweed (ragweed [7]; [13]) | Plant response rating, Pigweed, Redroot (Pigweed, Redroot [12]) | Plant response rating, Corn (corn; [13]) | Plant response rating, Foxtail, Giant (foxtail, giant [9]; [13]) | Plant response rating, Foxtail, Giant (foxtail, giant [10])
10: Plant response rating, Barnyardgrass (barnyardgrass [8])
20: Plant response rating, Wheat (wheat; [13]) | Plant response rating, Barnyardgrass (barnyardgrass [11]; [13])

CCC1CN(C(=O)c2ccnc(-c3cccnc3)c2)c2cccc(Cl)c2O1 (racemic) [Compound 286]
0: Plant response rating, Ragweed (ragweed [1]) | Plant response rating, Kochia (kochia [2]) | Plant response rating, Ryegrass, Italian (ryegrass, Italian [3]) | Plant response rating, Blackgrass (blackgrass; [14]) | Plant response rating, Wheat (wheat; [14]) | Plant response rating, Galium (galium; [14]) | Plant response rating, Pigweed, Redroot (Pigweed, Redroot [4]; [14]) | Plant response rating, Ryegrass, Italian (ryegrass, Italian [5]; [14]) | Plant response rating, Kochia (kochia [6]; [14]) | Plant response rating, Ragweed (ragweed [7]; [14]) | Plant response rating, Barnyardgrass (barnyardgrass [8]) | Plant response rating, Pigweed, Redroot (Pigweed, Redroot [12]) | Plant response rating, Corn (corn; [14]) | Plant response rating, Foxtail, Giant (foxtail, giant [9]; [14]) | Plant response rating, Foxtail, Giant (foxtail, giant [10]) | Plant response rating, Barnyardgrass (barnyardgrass [11]; [14])

CC1(C)CN(C(=O)c2ccnc(-n3cncn3)c2)c2ccccc2O1 [Compound 202]
0: Plant response rating, Ragweed (ragweed [1]) | Plant response rating, Kochia (kochia [2]) | Plant response rating, Ryegrass, Italian (ryegrass, Italian [3]) | Plant response rating, Galium (galium; [13]) | Plant response rating, Pigweed, Redroot (Pigweed, Redroot [4]; [13]) | Plant response rating, Ryegrass, Italian (ryegrass, Italian [5]; [13]) | Plant response rating, Kochia (kochia [6]; [13]) | Plant response rating, Ragweed (ragweed [7]; [13]) | Plant response rating, Barnyardgrass (barnyardgrass [8]) | Plant response rating, Pigweed, Redroot (Pigweed, Redroot [12]) | Plant response rating, Foxtail, Giant (foxtail, giant [9]; [13]) | Plant response rating, Foxtail, Giant (foxtail, giant [10]) | Plant response rating, Barnyardgrass (barnyardgrass [11]; [13])
0%: pest or weed control at 1000 g/ha (blackgrass; [13]) | Corn plant response rating (crop injury, 0 = no effect, 100 = complete kill) at 1000 g/ha (corn; [13])
30: Plant response rating, Wheat (wheat; [13])
